According to ChEMBL document CHEMBL6120996, “Discovery and optimization of 1,2,4-triazole derivatives as novel ferroptosis inhibitors” (Eur J Med Chem, 2025):
Calls of active or inactive are those of the source. No cut-off for these calls is given here.

Assays:
[1] = tested on: 786-0; test: Metal chelating activity assessed as Fe2+ chelation in human 786-0 cells assessed as intracellular ferrous ion level at 100 uM by FerroOrange fluorescent probe based assay; type: cell-based
[2] = Metal chelating activity assessed as Fe2+ chelation assessed as absorbance peak at 430 nm by UV-vis spectroscopy; conditions: dose 1.0 µM
[3] = Microsomal stability in human liver microsomes assessed as hepatic clearance at 1 uM by LC-MS/MS analysis; type: ADME, Microsome
[4] = Microsomal stability in human liver microsomes assessed as hepatic extraction ratio at 1 uM by LC-MS/MS analysis; type: ADME, Microsome; conditions: read-out: ERH
[5] = Microsomal stability in rat liver microsomes assessed as hepatic extraction ratio at 1 uM by LC-MS/MS analysis; type: ADME, Microsome; conditions: read-out: ERH
[6] = tested on: 786-0; test: Inhibition of RSL3-induced ferroptosis in human 786-0 cells assessed as cell viability incubated for 24 hrs by CellTiter-LumiTM assay; type: functional, cell-based; conditions: 786-0, 24 h
[7] = tested on: HT-1080; test: Anti-ferroptotic activity in human GPX4 knockout HT-1080 cells assessed as cell viability at 1 uM incubated for 24 hrs by CellTiter-LumiTM plus luminescent cell viability assay; type: functional, cell-based
[8] = Metabolic stability in human plasma assessed as half life at 1 uM by LC-MS/MS analysis; type: ADME, cell-free
[9] = Metabolic stability in rat plasma assessed as half life at 1 uM by LC-MS/MS analysis; type: ADME, cell-free
[10] = Microsomal stability in human liver microsomes assessed as half life at 0.1 uM by LC-MS/MS analysis; type: ADME, Microsome
[11] = Microsomal stability in rat liver microsomes assessed as half life at 0.1 uM by LC-MS/MS analysis; type: ADME, Microsome
[12] = Microsomal stability in human liver microsomes assessed as hepatic extraction ratio at 0.1 uM by LC-MS/MS analysis; type: ADME, Microsome; conditions: read-out: ERH
[13] = Microsomal stability in rat liver microsomes assessed as hepatic extraction ratio at 0.1 uM by LC-MS/MS analysis; type: ADME, Microsome; conditions: read-out: ERH
[14] = tested on: 786-0; test: Inhibition of RSL3-induced ferroptosis in human 786-0 cells assessed as cell viability by assessing cell morphology incubated for 24 hrs by CellTiter-LumiTM plus luminescent cell viability assay; type: functional, cell-based; conditions: 786-0, 24 h
[15] = Inhibition of erastin induced ferroptosis in human 786-0 cells assessed as cell viability incubated for 24 hrs by CellTiter-LumiTM assay; type: functional, cell-based; conditions: 786-0, 24 h
[16] = Inhibition of RSL3 induced ferroptosis in H9c2 cells assessed as cell viability incubated for 24 hrs by CellTiter-LumiTM assay; type: functional, cell-based; conditions: Rattus norvegicus, H9c2, 24 h
[17] = Inhibition of RSL3 induced ferroptosis in human HT-1080 cells assessed as cell viability incubated for 24 hrs by CellTiter-LumiTM assay; type: functional, cell-based; conditions: HT-1080, 24 h
[18] = Inhibition of RSL3 induced ferroptosis in human SK-HEP1 cells assessed as cell viability incubated for 24 hrs by CellTiter-LumiTM assay; type: functional, cell-based; conditions: SK-HEP1, 24 h
[19] = Inhibition of RSL3 induced ferroptosis in human MHCC97H cells assessed as cell viability incubated for 24 hrs by CellTiter-LumiTM assay; type: functional, cell-based
[20] = tested on: 786-0; test: Inhibition of STS induced apoptosis in human 786-0 cells assessed as cell viability at 1 uM incubated for 24 hrs by CellTiter-LumiTM assay; type: functional, cell-based
[21] = tested on: 786-0; test: Inhibition of H2O2 induced necrosis in human 786-0 cells assessed as cell viability at 1 uM incubated for 24 hrs by CellTiter-LumiTM assay; type: functional, cell-based
[22] = tested on: 786-0; test: Metal chelating activity assessed as Fe2+ chelation in human 786-0 cells assessed as intracellular ferrous ion level at 1 uM by FerroOrange fluorescent probe based assay; type: cell-based
[23] = tested on: 786-0; test: Inhibition of RSL3 induced ferroptosis in human 786-0 cells assessed as cell viability in presence of iFSP1 at 1 uM measured after 24 hrs by CellTiter-LumiTM assay; type: functional, cell-based
[24] = tested on: 786-0; test: Effect on erastin-induced decrease in GSH level in human 786-0 cells at 1 uM incubated for 10 hrs by Total intracellular GSH assay; type: functional, cell-based
[25] = tested on: 786-0; test: Cytotoxicity against human 786-0 cells assessed as cell viability incubated for 24 hrs by CellTiter-LumiTM assay; type: functional
[26] = tested on: 786-0; test: Inhibition of RSL3 induced lipid-ROS accumulation in human 786-0 cells incubated for 2.5 hrs by C11-BODIPY 581/591 staining coupled with flow cytometry analysis; type: functional, cell-based; conditions: dose 0.1-1 µM
[27] = tested on: 786-0; test: Inhibition of RSL3 induced lipid-ROS accumulation in human 786-0 cells assessed as fast elimination at 1 uM measured after 0.25 to 2.5 hrs by C11-BODIPY 581/591 staining coupled with flow cytometry analysis; type: functional, cell-based; conditions: time 0.25-2.5 hrs
[28] = tested on: SK-HEP1; test: Inhibition of RSL3 induced lipid-ROS accumulation in human SK-HEP1 cells at 1 uM incubated for 2.5 hrs by C11-BODIPY 581/591 staining coupled with flow cytometry analysis; type: functional, cell-based
[29] = tested on: SK-HEP1; test: Inhibition of RSL3 induced lipid-ROS accumulation in human SK-HEP1 cells at 1 uM incubated for 0.5 hrs by C11-BODIPY 581/591 staining coupled with flow cytometry analysis; type: functional, cell-based
[30] = Antioxidant activity assessed as free radical scavenging activity incubated for 30 mins in dark by DPPH assay relative to control; type: functional
[31] = Suppression of autoxidation of liposomes egg ( unknown origin) phosphatidylcholine lipids as substrate at 0.1 to 2.5 uM incubated for 5 min by C11-BODIPY 581/591 dye based fluorescent assay; type: functional; conditions: dose 0.1-2.5 µM
[32] = tested on: Mus musculus; test: Anti-ferroptotic activity in ConA-induced C57 mouse liver injury model assessed as reduction in ALT levels in serum at 10 mg/kg, ip pre-treated 1 day followed by treated with ConA measured after 24 hrs; type: functional, organism-based; conditions: time 2.0 day
[33] = tested on: Mus musculus; test: Anti-ferroptotic activity in ConA-induced C57 mouse liver injury model assessed as reduction in AST levels in serum at 10 mg/kg, ip pre-treated 1 day followed by challenged with ConA measured after 24 hrs; type: functional, organism-based
[34] = tested on: 786-0; test: Effect on GPX4 expression in human 786-0 cells at 1 uM incubated for 2.5 hrs by Western blot analysis; type: functional, cell-based
[35] = tested on: 786-0; test: Effect on IRP1 expression in human 786-0 cells at 1 uM incubated for 2.5 hrs by western blot analysis; type: functional, cell-based
[36] = tested on: 786-0; test: Effect on ACSL4 expression in human 786-0 cells at 1 uM incubated for 2.5 hrs by Western blot analysis; type: functional, cell-based
[37] = tested on: 786-0; test: Effect on SLC7A11 expression in human 786-0 cells at 1 uM incubated for 2.5 hrs by Western blot analysis; type: functional, cell-based
[38] = tested on: 786-0; test: Effect on TFRC expression in human 786-0 cells at 1 uM incubated for 2.5 hrs by Western blot analysis; type: functional, cell-based
[39] = tested on: 786-0; test: Effect on FTH1 expression in human 786-0 cells at 1 uM incubated for 2.5 hrs by western blot analysis; type: functional, cell-based
[40] = tested on: 786-0; test: Effect on FTL expression in human 786-0 cells at 1 uM incubated for 2.5 hrs by western blot analysis; type: functional, cell-based
[41] = tested on: Mus musculus; test: Anti-ferroptotic activity in ConA-induced C57 mouse liver injury model assessed as decrease in acute liver injury at 10 mg/kg, ip pre-administered one day followed by treated with ConA measured after 24 hrs by HE staining based analysis; type: functional, organism-based; conditions: time 48.0 hrs
[42] = tested on: Mus musculus; test: Anti-ferroptotic activity in ConA-induced C57 mouse acute liver injury model assessed as reduction in malondialdehyde levels at 10 mg/kg, ip pre-administered one day followed by treated with ConA measured after 24 hrs by MDA kit assay; type: functional, organism-based; conditions: time 48.0 hrs
[43] = tested on: Mus musculus; test: Anti-ferroptotic activity in ConA-induced C57 mouse acute liver injury model assessed as assessed as reduction in PTGS2 mRNA levels in liver tissue at 10 mg/kg, ip pre-administered one day followed by treated with ConA measured after 24 hrs by qRT-PCR analysis; type: functional, organism-based; conditions: time 48.0 hrs
[44] = tested on: Mus musculus; test: Anti-ferroptotic activity in ConA-induced C57 mouse acute liver injury model assessed as assessed as reduction in 4-HNE accumulation in liver tissue at 10 mg/kg, ip pre-administered one day followed by treated with ConA measured after 24 hrs by 4-HNE staining based analysis; type: functional, organism-based; conditions: time 48.0 hrs
[45] = tested on: 786-0; test: Effect on TFRC expression in human 786-0 cells in presence of 0.25 uM RSL3 at 1 uM incubated for 2.5 hrs by Western blot analysis; type: functional, cell-based
[46] = tested on: 786-0; test: Effect on IRP1 expression in human 786-0 cells in presence of 0.25 uM RSL3 at 1 uM incubated for 2.5 hrs by Western blot analysis; type: functional, cell-based
[47] = tested on: 786-0; test: Effect on FTH1 expression in human 786-0 cells in presence of 0.25 uM RSL3 at 1 uM incubated for 2.5 hrs by Western blot analysis; type: functional, cell-based
[48] = tested on: 786-0; test: Effect on FTL expression in human 786-0 cells in presence of 0.25 uM RSL3 at 1 uM incubated for 2.5 hrs by Western blot analysis; type: functional, cell-based
[49] = Microsomal stability in human liver microsomes assessed as hepatic clearance at 0.1 uM by LC-MS/MS analysis; type: ADME, Microsome
[50] = Microsomal stability in rat liver microsomes assessed as hepatic clearance at 0.1 uM by LC-MS/MS analysis; type: ADME, Microsome
[51] = tested on: 786-0; test: Inhibition of RSL3-induced ferroptosis in human 786-0 cells assessed as cell protection by assessing cell morphology at 1 uM incubated for 24 hrs; type: functional, cell-based

Compound: CC(=O)N(O)CCCCCNC(=O)CCC(=O)N(O)CCCCCNC(=O)CCC(=O)N(O)CCCCCN
- Activity [1]: Active
- Activity [2]: Active

Compound: C[C@]12CC[C@H]3[C@@H](CCC4=CC(=O)CC[C@@]43C)[C@@H]1CC[C@@H]2O [TESTOSTERONE]
- CLhep predicted at 1 µM [3]: 19.3 mL/min/kg
- hepatic extraction ratio at 1 µM [4]: 0.935
- hepatic extraction ratio at 1 µM [5]: 0.994

Compound: COc1ccc(COc2c(OC)cccc2C2N(c3ccccc3)N=C(C(C)=O)N2c2ccc(N(C)C)cc2)cc1 (stereo not given)
- EC50 [6]: 80 nM
- Activity [7]: Active
- half-life at 1 µM [8]: 23.9 h
- half-life at 1 µM [9]: 4.97 h
- t1/2 ([10]; microsomes, 0.1 µM): 4.02 min
- t1/2 ([11]; microsomes, 0.1 µM): 1.66 min
- hepatic extraction ratio at 0.1 µM [12]: 0.99
- hepatic extraction ratio at 0.1 µM [13]: 0.993
- EC50 [14]: 84 nM
- EC50 [15]: 54 nM
- EC50 [16]: 142 nM
- EC50 [17]: 74 nM
- EC50 [18]: 164 nM
- EC50 [19]: 349 nM
- inhibition [20]: inactive
- inhibition [21]: inactive
- Activity [22]: inactive
- inhibition [23]: Active
- Activity [24]: inactive
- CC50 [25]: > 10000 nM
- inhibition [26]: Dose-dependent-effect
- inhibition [27]: Active; Eliminated As Fast As Fer-1
- inhibition [28]: Active
- inhibition [29]: Active
- Activity [30]: Active
- Activity [31]: Dose-dependent-effect
- Activity [32]: Active
- Activity [33]: Active
- Activity [34]: No effect
- Activity [35]: No effect
- Activity [36]: No effect
- Activity [37]: No effect
- Activity [38]: No effect
- Activity [39]: No effect
- Activity [40]: No effect
- Activity [41]: Active
- Activity [42]: Active
- Activity [43]: Active
- Activity [44]: Active
- Activity [45]: inactive
- Activity [46]: inactive
- Activity [47]: inactive
- Activity [48]: inactive

Compound: COc1cccc(C2N(c3ccccc3)N=C(C(C)=O)N2c2ccc(N(C)C)cc2)c1OCc1ccc(F)c(F)c1 (stereo not given)
- EC50 [6]: 60 nM
- Activity [7]: Active
- half-life at 1 µM [8]: 33.7 h
- half-life at 1 µM [9]: 6.58 h
- half-life at 0.1 µM ([10]; liver microsomes): 5.74 min
- half-life at 0.1 µM ([11]; liver microsomes): 2.87 min
- CLhep predicted at 0.1 µM [49]: 20.4 mL/min/kg
- hepatic extraction ratio at 0.1 µM [12]: 0.986
- CLhep predicted at 0.1 µM [50]: 54.5 mL/min/kg
- hepatic extraction ratio at 0.1 µM [13]: 0.987
- EC50 [14]: 62 nM
- EC50 [15]: 44 nM
- EC50 [16]: 122 nM
- EC50 [17]: 186 nM
- EC50 [18]: 134 nM
- EC50 [19]: 288 nM
- inhibition [20]: inactive
- inhibition [21]: inactive
- Activity [22]: inactive
- inhibition [23]: Active
- Activity [24]: inactive
- CC50 [25]: > 40000 nM
- inhibition [26]: Dose-dependent-effect
- inhibition [27]: Active; Eliminated As Fast As Fer-1
- inhibition [28]: Active
- inhibition [29]: Active
- Activity [30]: Active
- Activity [2]: inactive
- Activity [31]: Dose-dependent-effect
- Activity [32]: Active
- Activity [33]: Active
- Activity [34]: No effect
- Activity [35]: No effect
- Activity [36]: No effect
- Activity [37]: No effect
- Activity [38]: No effect
- Activity [39]: No effect
- Activity [40]: No effect
- Activity [41]: Active
- Activity [42]: Active
- Activity [43]: Active
- Activity [44]: Active
- Activity [51]: Active
- Activity [45]: inactive
- Activity [46]: inactive
- Activity [47]: inactive
- Activity [48]: inactive
